The values below come from patent US6780872B2, “Tricyclic dihydropyrazolone and tricyclic dihydroisoxazolone potassium channel openers” (Abbott Laboratories, priority 2000, dated 2004).

Molecules are shown by their SMILES.

The experiment has as its system guinea-pig urinary bladder (GPB) cells. Nature of the experiment: Membrane hyperpolarization (MHP) assay, DiBAC(4)3 dye, FLIPR. The class given is cell-based. Particulars: Cavia porcellus; for Emax: maximal steady-state hyperpolarization in GPB cells, normalized to response with 10 μM P1075 (=100%); for EC50: membrane hyperpolarization in GPB cells, concentration eliciting 50% of the maximal response of the test sample. How it is done:
Compounds were evaluated for potassium channel opening activity using primary cultured guinea-pig urinary bladder (GPB) cells.
For the preparation of urinary bladder smooth muscle cells, urinary bladders were removed from male guinea-pigs (Hartley, Charles River, Wilmington, Mass.) weighing 300-400 g and placed in ice-cold Ca^2+-free Krebs solution (Composition, mM: KCl, 2.7; KH2PO4, 1.5; NaCl, 75; Na2HPO4, 9.6; Na2HPO4.7H2O, 8; MgSO4, 2; glucose, 5; HEPES, 10; pH 7.4). Cells were isolated by enzymatic dissociation as previously described with minor modifications in (Klockner, U. and Isenberg, G., Pflugers Arch. 1985, 405, 329-339), hereby incorporated by reference. The bladder was cut into small sections and incubated in 5 mL of the Kreb's solution containing 1 mg/mL collagenase (Sigma, St. Louis, Mo.) and 0.2 mg/mL pronase (Calbiochem, La Jolla, Calif.) with continuous stirring in a cell incubator for 30 minutes. The mixture was then centrifuged at 1300×g for 5 minutes, and the pellet resuspended in Dulbecco's PBS (GIBCO, Gaithersburg, Md.) and recentrifuged to remove residual enzyme. The cell pellet was resuspended in 5 mL growth media (composition: Dulbecco's modified Eagle's medium supplemented with 10% fetal bovine serum, 100 units/mL penicillin, 100 units/mL streptomycin and […] amphotericin B) and further dissociated by pipetting the suspension through a flame-polished Pasteur pipette and passing it through a polypropylene mesh membrane (Spectrum, Houston, Tex.). The cell density was adjusted to 100,000 cells/mL by resuspension in growth media. Cells were plated in clear-bottomed black 96-well plates (Packard) for membrane potential studies at a density of 20,000 cells/well and maintained in a cell incubator with 90% air: 10% CO2 until confluent. Cells were confirmed to be of smooth muscle type by cytoskeletal staining using a monoclonal mouse anti human-α-smooth muscle actin (Biomeda, Foster City, Calif.).
Functional activity at potassium channels was measured by evaluating changes in membrane potential using the bis-oxonol dye DiBAC(4)3 (Molecular Probes) in a 96-well cell-based kinetic assay system, Fluorescent Imaging Plate Reader (FLIPR) (K. S. Schroeder et al., J. Biomed. Screen., v. 1 pp. 7581 (1996)), hereby incorporated by reference. DiBAC(4) is an anionic potentiometric probe which partitions between cells and extracellular solution in a membrane potential-dependent manner. With increasing membrane potential (for example, K^+ depolarization), the probe further partitions into the cell; this is measured as an increase in fluorescence due to dye interaction with intracellular lipids and proteins. Conversely, decreasing membrane potential (hyperpolarization by potassium channel openers) evokes a decrease in fluorescence.
Confluent guinea-pig urinary bladder cells cultured in black clear-bottomed 96-well plates were rinsed twice with […] assay buffer (composition, mM: HEPES, 20; NaCl, 120; KCl, 2; CaCl2, 2; MgCl2, 1; glucose, 5; pH 7.4 at 25° C.) containing 5 μM DiBAC(4) and incubated with […] of the buffer in a cell incubator for 30 minutes at 37° C. to ensure dye distribution across the membrane. After recording the baseline fluorescence for 5 minutes, the reference or test compounds, prepared at 10 times the concentration in the assay buffer, were added directly to the wells. Changes in fluorescence were monitored for an additional 25 minutes. Hyperpolarization responses were corrected for any background noise and were normalized to the response observed with 10 μM of the reference compound P1075, N″-cyano-N-(tert-pentyl)-N′-(3-pyridinyl)guanidine, which was assigned as 100%. P1075 is a potent opener of smooth muscle KATP channels (Quast et al., Mol. Pharmacol., v. 43 pp. 474-481 (1993)) and was prepared using the procedures described in (Manley, J. Med. Chem. (1992) 35, 2327-2340), hereby incorporated by reference. […]

Regarding `Cn1[nH]c(=O)c2c1NC1=C(C(=O)CC1)C2c1ccc(F)c(Br)c1` (centres unmarked) [Example 1, 4-(3-bromo-4-fluorophenyl)-1-methyl-1,2,4,6,7,8-hexahydrocyclopenta[b]pyrazolo[4,3-e]pyridine-3,5-dione], the Emax – broadly, the maximal effect, on the per cent scale that the assay sets – stood at 91% and the EC50 (in general, the midpoint of the concentration-response curve) turned out to be 550 nM.

In the case of `O=C1CCC2=C1C(c1ccc(F)c(Br)c1)c1c([nH][nH]c1=O)N2` (centres unmarked) [Example 2, 4-(3-bromo-4-fluorophenyl)-1,2,4,6,7,8-hexahydrocyclopenta[b]pyrazolo[4,3-e]pyridine-3,5-dione], the Emax came out at 90% and a half-maximal response (EC50) required 2770 nM.

As to `O=C1CCCC2=C1C(c1ccc(F)c(Br)c1)c1c([nH][nH]c1=O)N2` (centres unmarked) [Example 3, 4-(3-bromo-4-fluorophenyl)-4,7,8,9-tetrahydro-1H-pyrazolo[3,4-b]quinoline-3,5(2H,6H)-dione], the Emax came out at 82% and the EC50 was determined as 1720 nM.

`CCn1[nH]c(=O)c2c1NC1=C(C(=O)CC1)C2c1ccc(F)c(Br)c1` (centres unmarked) [Example 4, 4-(3-bromo-4-fluorophenyl)-1-ethyl-1,2,4,6,7,8-hexahydrocyclopenta[b]pyrazolo[4,3-e]pyridine-3,5-dione] returned an Emax of 103% and an EC50 of 270 nM.

With `CC(C)(C)n1[nH]c(=O)c2c1NC1=C(C(=O)CC1)C2c1ccc(F)c(Br)c1` (centres unmarked) [Example 5, 4-(3-bromo-4-fluorophenyl)-1-tert-butyl-1,2,4,6,7,8-hexahydrocyclopenta[b]pyrazolo[4,3-e]pyridine-3,5-dione], the EC50 is greater than 10000 nM.

`O=C1CCC2=C1C(c1ccc(F)c(Br)c1)c1c(n(-c3ccccn3)[nH]c1=O)N2` (centres unmarked) [Example 6, 4-(3-bromo-4-fluorophenyl)-1-(2-pyridinyl)-1,2,4,6,7,8-hexahydrocyclopenta[b]pyrazolo[4,3-e]pyridine-3,5-dione] showed an EC50 greater than 10000 nM.

`Cn1[nH]c(=O)c2c1NC1=C(C(=O)CC1)C2c1ccc(OC(F)(F)F)cc1` (centres unmarked) [Example 7, 1-methyl-4-[4-(trifluoromethoxy)phenyl]-1,2,4,6,7,8-hexahydrocyclopenta[b]pyrazolo[4,3-e]pyridine-3,5-dione] yielded an EC50 greater than 10000 nM.

Turning to `Cc1ccc(C2C3=C(CCC3=O)Nc3c2c(=O)[nH]n3C)cc1Br` (centres unmarked) [Example 8, 4-(3-bromo-4-methylphenyl)-1-methyl-1,2,4,6,7,8-hexahydrocyclopenta[b]pyrazolo[4,3-e]pyridine-3,5-dione], the Emax came to 83% and the EC50 was found to be 480 nM.

`Cn1[nH]c(=O)c2c1NC1=C(C(=O)CC1)C2c1ccc(F)c(C(F)(F)F)c1` (centres unmarked) [Example 9, 4-[4-fluoro-3-(trifluoromethyl)phenyl]-1-methyl-1,2,4,6,7,8-hexahydrocyclopenta[b]pyrazolo[4,3-e]pyridine-3,5-dione] displayed an Emax of 89% and an EC50 of 680 nM.

For `Cn1[nH]c(=O)c2c1NC1=C(C(=O)CC1)C2c1ccc(Cl)c([N+](=O)[O-])c1` (centres unmarked) [Example 10, 4-(4-chloro-3-nitrophenyl)-1-methyl-1,2,4,6,7,8-hexahydrocyclopenta[b]pyrazolo[4,3-e]pyridine-3,5-dione], the Emax came out at 90% and the EC50 is 2350 nM.

In turn, `Cc1ccc(C2C3=C(CCC3=O)Nc3c2c(=O)[nH]n3C)cc1I` (centres unmarked) [Example 11, 4-(3-iodo-4-methylphenyl)-1-methyl-1,2,4,6,7,8-hexahydrocyclopenta[b]pyrazolo[4,3-e]pyridine-3,5-dione] gave an Emax of 109% and an EC50 of 530 nM.

In the case of `Cn1[nH]c(=O)c2c1NC1=C(C(=O)CC1)C2c1ccc(F)c(I)c1` (centres unmarked) [Example 12, 4-(4-fluoro-3-iodophenyl)-1-methyl-1,2,4,6,7,8-hexahydrocyclopenta[b]pyrazolo[4,3-e]pyridine-3,5-dione], the maximal response (Emax) came to 101% and a half-maximal response (EC50) required 320 nM.

Turning to `Cn1[nH]c(=O)c2c1NC1=C(C(=O)CC1)C2c1ccc(Cl)c(Cl)c1` (centres unmarked) [Example 13, 4-(3,4-dichlorophenyl)-1-methyl-1,2,4,6,7,8-hexahydrocyclopenta[b]pyrazolo[4,3-e]pyridine-3,5-dione], the Emax was 101% and a half-maximal effect (EC50) was put at 670 nM.

In turn, `Cn1[nH]c(=O)c2c1NC1=C(C(=O)CC1)C2c1ccc(F)c(-c2ccco2)c1` (centres unmarked) [Example 14, 4-[4-fluoro-3-(2-furyl)phenyl]-1-methyl-1,2,4,6,7,8-hexahydrocyclopenta[b]pyrazolo[4,3-e]pyridine-3,5-dione] showed an EC50 greater than 10000 nM.

`Cn1[nH]c(=O)c2c1NC1=C(C(=O)CC1)C2c1csc([N+](=O)[O-])c1` (centres unmarked) [Example 15, 1-methyl-4-(5-nitro-3-thienyl)-1,2,4,6,7,8-hexahydrocyclopenta[b]pyrazolo[4,3-e]pyridine-3,5-dione] returned an Emax of 58% and an EC50 of 7700 nM.

Regarding `Cn1[nH]c(=O)c2c1NC1=C(C(=O)CC1)C2c1ccc2nonc2c1` (centres unmarked) [Example 16, 4-(2,1,3-benzoxadiazol-5-yl)-1-methyl-1,2,4,6,7,8-hexahydrocyclopenta[b]pyrazolo[4,3-e]pyridine-3,5-dione], the EC50 was greater than 10000 nM.

As for `Cn1[nH]c(=O)c2c1NC1=C(C(=O)CC1)C2c1ccc2nsnc2c1` (centres unmarked) [Example 17, 4-(2,1,3-benzothiadiazol-5-yl)-1-methyl-1,2,4,6,7,8-hexahydrocyclopenta[b]pyrazolo[4,3-e]pyridine-3,5-dione], the EC50 was greater than 10000 nM.

Compound `Cn1[nH]c(=O)c2c1NC1=C(C(=O)CCC1)C2c1ccc(F)c(Br)c1` (centres unmarked) [Example 18, 4-(3-bromo-4-fluorophenyl)-1-methyl-4,7,8,9-tetrahydro-1H-pyrazolo[3,4-b]quinoline-3,5(2H,6H)-dione] returned an Emax of 80% and an EC50 of 1970 nM.

`Cn1[nH]c2c(c1=O)C(c1ccc(F)c(Br)c1)C1=C(CCC1=O)N2` (centres unmarked) [Example 19, 4-(3-bromo-4-fluorophenyl)-2-methyl-1,2,4,6,7,8-hexahydrocyclopenta[b]pyrazolo[4,3-e]pyridine-3,5-dione] yielded an EC50 greater than 10000 nM.

For the compound `O=C1CCC2=C1C(c1ccc(F)c(Br)c1)c1c([nH]n(-c3ccccc3)c1=O)N2` (centres unmarked) [Example 20, 4-(3-bromo-4-fluorophenyl)-2-phenyl-1,2,4,6,7,8-hexahydrocyclopenta[b]pyrazolo[4,3-e]pyridine-3,5-dione], the Emax was 48% and the EC50 was greater than 10000 nM.

As for `Cn1[nH]c(=O)c2c1NC1=C(C2c2ccc(F)c(Br)c2)S(=O)(=O)CC1` (centres unmarked) [Example 21, 4-(3-bromo-4-fluorophenyl)-1-methyl-1,2,4,6,7,8-hexahydro-3H-pyrazolo[3,4-b]thieno[2,3-e]pyridin-3-one 5,5-dioxide], the EC50 was greater than 10000 nM.

`Cn1[nH]c(=O)c2c1NC1=C(C(=O)C(C)(C)CC1)C2c1ccc(F)c(Br)c1` (centres unmarked) [Example 22, 4-(3-bromo-4-fluorophenyl)-1,6,6-trimethyl-4,7,8,9-tetrahydro-1H-pyrazolo[3,4-b]quinoline-3,5(2H,6H)-dione] returned a maximum response (Emax) of 105% and an EC50 of 330 nM.

In the case of `Cn1[nH]c(=O)c2c1NC1=C(C(=O)C(C)(C)CC1)C2c1ccc(F)c(I)c1` (centres unmarked) [Example 23, 4-(4-fluoro-3-iodophenyl)-1,6,6-trimethyl-4,7,8,9-tetrahydro-1H-pyrazolo[3,4-b]quinoline-3,5(2H,6H)-dione], the Emax is 90% and the response was half-maximal at 70 nM (EC50).
